Results from patent US20120027816A1, “HIGHLY PURE ELETRIPTAN OR A PHARMACEUTICALLY ACCEPTABLE SALT THEREOF SUBSTANTIALLY FREE OF ELETRIPTAN N-OXIDE IMPURITY” (ACTAVIS GROUP PTC EHF, priority 2009, published 2012).
Structures can show the parent of a compound that is named as a salt.

Test: Particle Size Distribution by laser diffraction (Malvern Master Sizer 2000)
Assay type: physicochemical
Conditions: eletriptan hydrobromide obtained by the Example 4 procedure, unmilled, cumulative volume size distribution
Procedure: As used herein, “Particle Size Distribution (PSD)” means the cumulative volume size distribution of equivalent spherical diameters as determined by laser diffraction in Malvern Master Sizer 2000 equipment or its equivalent using a particle size method containing Tegiloxan medium with sonication time of 10 seconds and stirrer speed of 2500 rpm. “Mean particle size distribution, i.e., (D50)” correspondingly, means the median of said particle size distribution. The important characteristics of the PSD are the (D90), which is the size, in microns, below which 90% of the particles by volume are found, and the (D50), which is the size, in microns, below which 50% of the particles by volume are found. Thus, a D90 or d(0.9) of less than 300 microns means that 90 volume-percent of the particles in a composition have a diameter less than 300 microns.

Particle Size Distribution d(0.1) | Particle Size Distribution d(0.5) | Particle Size Distribution d(0.9) | Compound
13.58 microns | 27.25 microns | 50.91 microns | CN1CCC[C@@H]1Cc1c[nH]c2ccc(CCS(=O)(=O)c3ccccc3)cc12 [Example 4C, eletriptan hydrobromide]
9.99 microns | 20.85 microns | 42.83 microns | CN1CCC[C@@H]1Cc1c[nH]c2ccc(CCS(=O)(=O)c3ccccc3)cc12 [Example 4B, eletriptan hydrobromide]
12.07 microns | 27.69 microns | 53.92 microns | CN1CCC[C@@H]1Cc1c[nH]c2ccc(CCS(=O)(=O)c3ccccc3)cc12 [Example 4A, eletriptan hydrobromide]
